{"source": "PubChem BioAssay (NCI)", "experiment_in_all_cases": "growth of human tumour cells (NCI), 48 h", "key": {"[1]": {"test_system": "COLO 205 colon"}, "[2]": {"test_system": "SF-539 CNS"}, "[3]": {"test_system": "DU-145 prostate"}, "[4]": {"test_system": "NCI-H522 lung"}, "[5]": {"test_system": "HOP-62 NSCLC"}, "[6]": {"test_system": "NCI/ADR-RES ovarian"}, "[7]": {"test_system": "SK-OV-3 ovarian"}, "[8]": {"test_system": "A549 NSCLC"}, "[9]": {"test_system": "PC-3 prostate"}, "[10]": {"test_system": "K-562 leukemia"}, "[11]": {"test_system": "UACC-257 melanoma"}, "[12]": {"test_system": "SK-MEL-28 melanoma"}, "[13]": {"test_system": "KM12 colon"}, "[14]": {"test_system": "SK-MEL-2 melanoma"}, "[15]": {"test_system": "MCF7 breast"}, "[16]": {"test_system": "SN12C renal"}, "[17]": {"test_system": "HCT-15 colon"}, "[18]": {"test_system": "ACHN renal"}, "[19]": {"test_system": "OVCAR-4 ovarian"}, "[20]": {"test_system": "RPMI-8226 leukemia"}, "[21]": {"test_system": "OVCAR-8 ovarian"}, "[22]": {"test_system": "MOLT-4 leukemia"}, "[23]": {"test_system": "OVCAR-3 ovarian"}, "[24]": {"test_system": "OVCAR-5 ovarian"}, "[25]": {"test_system": "786-0 renal"}, "[26]": {"test_system": "HT29 colon"}, "[27]": {"test_system": "NCI-H460 lung"}, "[28]": {"test_system": "UO-31 renal"}, "[29]": {"test_system": "SK-MEL-5 melanoma"}, "[30]": {"test_system": "HL-60(TB) leukemia"}, "[31]": {"test_system": "CCRF-CEM leukemia"}, "[32]": {"test_system": "HCC-2998 colon"}, "[33]": {"test_system": "RXF 393 renal"}, "[34]": {"test_system": "MDA-MB-435"}, "[35]": {"test_system": "HS 578T breast"}, "[36]": {"test_system": "BT-549 breast"}, "[37]": {"test_system": "HCT-116 colon"}, "[38]": {"test_system": "A498 renal"}, "[39]": {"test_system": "SF-295 CNS"}, "[40]": {"test_system": "SF-268 CNS"}, "[41]": {"test_system": "U251 CNS"}, "[42]": {"test_system": "SW-620 colon"}, "[43]": {"test_system": "IGROV1 ovarian"}, "[44]": {"test_system": "UACC-62 melanoma"}, "[45]": {"test_system": "SNB-75 CNS"}, "[46]": {"test_system": "NCI-H226 lung"}, "[47]": {"test_system": "MDA-MB-231 breast"}, "[48]": {"test_system": "SNB-19 CNS"}, "[49]": {"test_system": "CAKI-1 renal"}, "[50]": {"test_system": "LOX IMVI melanoma"}, "[51]": {"test_system": "SR leukemia"}, "[52]": {"test_system": "M14 melanoma"}}, "note": "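Assay format: 96-well plates, 48-hour exposure. GI50 marks 50% less growth. TGI marks complete inhibition of growth.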"}
{"compound": "Brc1ccc(SCN(CSc2ccc(Br)cc2)Cc2ccccc2)cc1", "values": [{"measurement": "GI50", "setting": "[1]", "result": 3.85, "unit": "µM"}, {"measurement": "TGI", "setting": "[1]", "result": 13.7, "unit": "µM"}, {"measurement": "GI50", "setting": "[2]", "result": 1920, "unit": "nM"}, {"measurement": "TGI", "setting": "[2]", "result": 3.88, "unit": "µM"}, {"measurement": "GI50", "setting": "[3]", "result": 6.12, "unit": "µM"}, {"measurement": "TGI", "setting": "[3]", "result": 21, "unit": "µM"}, {"measurement": "GI50", "setting": "[4]", "result": 2430, "unit": "nM"}, {"measurement": "TGI", "setting": "[4]", "result": 5.62, "unit": "µM"}, {"measurement": "GI50", "setting": "[5]", "result": 3.2, "unit": "µM"}, {"measurement": "TGI", "setting": "[5]", "result": 14.2, "unit": "µM"}, {"measurement": "GI50", "setting": "[6]", "result": 4, "unit": "µM"}, {"measurement": "TGI", "setting": "[6]", "result": 95.8, "unit": "µM"}, {"measurement": "GI50", "setting": "[7]", "result": 7.12, "unit": "µM"}, {"measurement": "TGI", "setting": "[7]", "result": 51, "unit": "µM"}, {"measurement": "GI50", "setting": "[8]", "result": 2410, "unit": "nM"}, {"measurement": "TGI", "setting": "[8]", "result": 11, "unit": "µM"}, {"measurement": "GI50", "setting": "[9]", "result": 2340, "unit": "nM"}, {"measurement": "TGI", "setting": "[9]", "result": 10.3, "unit": "µM"}, {"measurement": "GI50", "setting": "[10]", "result": 5.44, "unit": "µM"}, {"measurement": "TGI", "setting": "[10]", "result": 60.6, "unit": "µM"}, {"measurement": "GI50", "setting": "[11]", "result": 4.05, "unit": "µM"}, {"measurement": "TGI", "setting": "[11]", "result": 17.5, "unit": "µM"}, {"measurement": "GI50", "setting": "[12]", "result": 5.12, "unit": "µM"}, {"measurement": "TGI", "setting": "[12]", "result": 23.4, "unit": "µM"}, {"measurement": "GI50", "setting": "[13]", "result": 2670, "unit": "nM"}, {"measurement": "TGI", "setting": "[13]", "result": 10.9, "unit": "µM"}, {"measurement": "GI50", "setting": "[14]", "result": 6.06, "unit": "µM"}, {"measurement": "TGI", "setting": "[14]", "result": 19.9, "unit": "µM"}, {"measurement": "GI50", "setting": "[15]", "result": 3.06, "unit": "µM"}, {"measurement": "TGI", "setting": "[15]", "result": 13.3, "unit": "µM"}, {"measurement": "GI50", "setting": "[16]", "result": 1380, "unit": "nM"}, {"measurement": "TGI", "setting": "[16]", "result": 14.2, "unit": "µM"}, {"measurement": "GI50", "setting": "[17]", "result": 3.56, "unit": "µM"}, {"measurement": "TGI", "setting": "[17]", "result": 18.8, "unit": "µM"}, {"measurement": "GI50", "setting": "[18]", "result": 4.49, "unit": "µM"}, {"measurement": "TGI", "setting": "[18]", "result": 19, "unit": "µM"}, {"measurement": "GI50", "setting": "[19]", "result": 10.4, "unit": "µM"}, {"measurement": "TGI", "setting": "[19]", "result": 87.8, "unit": "µM"}, {"measurement": "GI50", "setting": "[20]", "result": 3.31, "unit": "µM"}, {"measurement": "TGI", "setting": "[20]", "result": 10.5, "unit": "µM"}, {"measurement": "GI50", "setting": "[21]", "result": 3.71, "unit": "µM"}, {"measurement": "TGI", "setting": "[21]", "result": 17.9, "unit": "µM"}, {"measurement": "GI50", "setting": "[22]", "result": 2370, "unit": "nM"}, {"measurement": "TGI", "setting": "[22]", "result": 6.82, "unit": "µM"}, {"measurement": "GI50", "setting": "[23]", "result": 3.54, "unit": "µM"}, {"measurement": "TGI", "setting": "[23]", "result": 11.4, "unit": "µM"}, {"measurement": "GI50", "setting": "[24]", "result": 2890, "unit": "nM"}, {"measurement": "TGI", "setting": "[24]", "result": 11.4, "unit": "µM"}, {"measurement": "GI50", "setting": "[25]", "result": 4.3, "unit": "µM"}, {"measurement": "TGI", "setting": "[25]", "result": 15.5, "unit": "µM"}, {"measurement": "GI50", "setting": "[26]", "result": 5.05, "unit": "µM"}, {"measurement": "TGI", "setting": "[26]", "result": 18, "unit": "µM"}, {"measurement": "GI50", "setting": "[27]", "result": 2780, "unit": "nM"}, {"measurement": "TGI", "setting": "[27]", "result": 12, "unit": "µM"}, {"measurement": "GI50", "setting": "[28]", "result": 1930, "unit": "nM"}, {"measurement": "TGI", "setting": "[28]", "result": 8.64, "unit": "µM"}, {"measurement": "GI50", "setting": "[29]", "result": 1770, "unit": "nM"}, {"measurement": "TGI", "setting": "[29]", "result": 3.46, "unit": "µM"}, {"measurement": "GI50", "setting": "[30]", "result": 2350, "unit": "nM"}, {"measurement": "TGI", "setting": "[30]", "result": 5.36, "unit": "µM"}, {"measurement": "GI50", "setting": "[31]", "result": 2100, "unit": "nM"}, {"measurement": "TGI", "setting": "[31]", "result": 7.4, "unit": "µM"}, {"measurement": "GI50", "setting": "[32]", "result": 11.5, "unit": "µM"}, {"measurement": "TGI", "setting": "[32]", "result": 25.5, "unit": "µM"}, {"measurement": "GI50", "setting": "[33]", "result": 5.54, "unit": "µM"}, {"measurement": "TGI", "setting": "[33]", "result": 20.4, "unit": "µM"}, {"measurement": "GI50", "setting": "[34]", "result": 3.1, "unit": "µM"}, {"measurement": "TGI", "setting": "[34]", "result": 12.2, "unit": "µM"}, {"measurement": "GI50", "setting": "[35]", "result": 2980, "unit": "nM"}, {"measurement": "TGI", "setting": "[35]", "result": "> 100", "unit": "µM"}, {"measurement": "GI50", "setting": "[36]", "result": 1750, "unit": "nM"}, {"measurement": "TGI", "setting": "[36]", "result": 3.9, "unit": "µM"}, {"measurement": "GI50", "setting": "[37]", "result": 3.66, "unit": "µM"}, {"measurement": "TGI", "setting": "[37]", "result": 14.4, "unit": "µM"}, {"measurement": "GI50", "setting": "[38]", "result": 1510, "unit": "nM"}, {"measurement": "TGI", "setting": "[38]", "result": 3.47, "unit": "µM"}, {"measurement": "GI50", "setting": "[39]", "result": 1280, "unit": "nM"}, {"measurement": "TGI", "setting": "[39]", "result": 3.49, "unit": "µM"}, {"measurement": "GI50", "setting": "[40]", "result": 2310, "unit": "nM"}, {"measurement": "TGI", "setting": "[40]", "result": 12.6, "unit": "µM"}, {"measurement": "GI50", "setting": "[41]", "result": 2020, "unit": "nM"}, {"measurement": "TGI", "setting": "[41]", "result": 6.82, "unit": "µM"}, {"measurement": "GI50", "setting": "[42]", "result": 3.58, "unit": "µM"}, {"measurement": "TGI", "setting": "[42]", "result": 15.1, "unit": "µM"}, {"measurement": "GI50", "setting": "[43]", "result": 2640, "unit": "nM"}, {"measurement": "TGI", "setting": "[43]", "result": 7.25, "unit": "µM"}, {"measurement": "GI50", "setting": "[44]", "result": 3.01, "unit": "µM"}, {"measurement": "TGI", "setting": "[44]", "result": 9.34, "unit": "µM"}, {"measurement": "GI50", "setting": "[45]", "result": 2280, "unit": "nM"}, {"measurement": "TGI", "setting": "[45]", "result": 10.9, "unit": "µM"}, {"measurement": "GI50", "setting": "[46]", "result": 1930, "unit": "nM"}, {"measurement": "TGI", "setting": "[46]", "result": 4.39, "unit": "µM"}, {"measurement": "GI50", "setting": "[47]", "result": 1690, "unit": "nM"}, {"measurement": "TGI", "setting": "[47]", "result": 4.3, "unit": "µM"}, {"measurement": "GI50", "setting": "[48]", "result": 2690, "unit": "nM"}, {"measurement": "TGI", "setting": "[48]", "result": 23.5, "unit": "µM"}, {"measurement": "GI50", "setting": "[49]", "result": 3.47, "unit": "µM"}, {"measurement": "TGI", "setting": "[49]", "result": 12.5, "unit": "µM"}, {"measurement": "GI50", "setting": "[50]", "result": 1610, "unit": "nM"}, {"measurement": "TGI", "setting": "[50]", "result": 3.19, "unit": "µM"}, {"measurement": "GI50", "setting": "[51]", "result": 2770, "unit": "nM"}, {"measurement": "TGI", "setting": "[51]", "result": 7.77, "unit": "µM"}, {"measurement": "GI50", "setting": "[52]", "result": 3.79, "unit": "µM"}, {"measurement": "TGI", "setting": "[52]", "result": 14.2, "unit": "µM"}]}
